From ChEMBL document CHEMBL1201862, “PubChem BioAssay data set” (2004)
The source made the active and inactive calls.

Legend:
HEK293 [1] = test: NOD2 signaling inhibitors in MDP-stimulated cells, cell-based, uHTS, luminescence (AID 2001); format: functional; settings: Homo sapiens
HEK293 [2] = test: NOD1 signaling inhibitors, primary screen, cell-based, luminescence, uHTS (AID 1578); format: functional; settings: Homo sapiens
HEK293 [3] = test: cells; format: functional, cell-based; settings: Homo sapiens
[4] = biological target: Nucleotide-binding oligomerization domain-containing protein 2 (Homo sapiens, UniProt Q9HC29); test: NOD2 signaling inhibitors, cell-based, luminescence, uHTS, HEK293 (AID 1566); format: functional
Chain of Nucleotide-binding oligomerization domain-containing protein 2 (Q9HC29 whole entry, the tested form may be a part): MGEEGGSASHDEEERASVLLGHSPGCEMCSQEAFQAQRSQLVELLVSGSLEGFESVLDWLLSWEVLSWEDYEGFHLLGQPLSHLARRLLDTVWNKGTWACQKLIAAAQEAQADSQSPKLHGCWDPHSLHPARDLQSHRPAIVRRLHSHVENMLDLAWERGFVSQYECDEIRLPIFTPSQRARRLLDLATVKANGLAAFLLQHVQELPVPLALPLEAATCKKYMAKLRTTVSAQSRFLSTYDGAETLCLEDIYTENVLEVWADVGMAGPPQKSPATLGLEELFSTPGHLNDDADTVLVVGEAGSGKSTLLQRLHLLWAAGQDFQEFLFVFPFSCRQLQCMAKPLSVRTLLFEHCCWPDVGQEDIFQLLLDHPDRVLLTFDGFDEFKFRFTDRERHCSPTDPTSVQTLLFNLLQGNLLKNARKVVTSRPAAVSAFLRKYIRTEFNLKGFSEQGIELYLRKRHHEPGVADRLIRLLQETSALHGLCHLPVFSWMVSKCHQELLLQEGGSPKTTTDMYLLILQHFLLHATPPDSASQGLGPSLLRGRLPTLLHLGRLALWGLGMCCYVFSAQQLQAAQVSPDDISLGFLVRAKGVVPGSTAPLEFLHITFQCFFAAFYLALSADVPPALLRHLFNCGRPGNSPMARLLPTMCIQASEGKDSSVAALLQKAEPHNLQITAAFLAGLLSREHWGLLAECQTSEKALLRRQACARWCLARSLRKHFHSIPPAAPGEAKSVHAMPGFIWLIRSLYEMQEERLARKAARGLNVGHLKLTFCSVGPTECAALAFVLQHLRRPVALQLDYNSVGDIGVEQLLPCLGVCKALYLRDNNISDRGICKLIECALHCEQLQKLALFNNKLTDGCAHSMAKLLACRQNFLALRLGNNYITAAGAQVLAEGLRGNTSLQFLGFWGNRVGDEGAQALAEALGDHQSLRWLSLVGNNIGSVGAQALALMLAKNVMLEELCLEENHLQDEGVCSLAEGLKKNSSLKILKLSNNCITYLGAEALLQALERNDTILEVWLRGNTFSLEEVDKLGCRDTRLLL

HEK293 [5] = test: cells; format: functional, cell-based; settings: Homo sapiens; remark: listed apart in the source
HEK293 [6] = test: cells; format: functional, cell-based; settings: Homo sapiens; remark: listed apart in the source
[7] = biological target: T1, Short transient receptor potential channel 4 (Mus musculus, UniProt Q9QUQ5); test: mouse TRPC4 channel inhibitors, dose response, cell-based, HEK293 TRPC4/mu-opioid, Fluo-4 calcium (AID 434942); format: functional;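 further: potency of inhibitors blocking the TRPC4 calcium response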
T1 sequence (Q9QUQ5 whole entry): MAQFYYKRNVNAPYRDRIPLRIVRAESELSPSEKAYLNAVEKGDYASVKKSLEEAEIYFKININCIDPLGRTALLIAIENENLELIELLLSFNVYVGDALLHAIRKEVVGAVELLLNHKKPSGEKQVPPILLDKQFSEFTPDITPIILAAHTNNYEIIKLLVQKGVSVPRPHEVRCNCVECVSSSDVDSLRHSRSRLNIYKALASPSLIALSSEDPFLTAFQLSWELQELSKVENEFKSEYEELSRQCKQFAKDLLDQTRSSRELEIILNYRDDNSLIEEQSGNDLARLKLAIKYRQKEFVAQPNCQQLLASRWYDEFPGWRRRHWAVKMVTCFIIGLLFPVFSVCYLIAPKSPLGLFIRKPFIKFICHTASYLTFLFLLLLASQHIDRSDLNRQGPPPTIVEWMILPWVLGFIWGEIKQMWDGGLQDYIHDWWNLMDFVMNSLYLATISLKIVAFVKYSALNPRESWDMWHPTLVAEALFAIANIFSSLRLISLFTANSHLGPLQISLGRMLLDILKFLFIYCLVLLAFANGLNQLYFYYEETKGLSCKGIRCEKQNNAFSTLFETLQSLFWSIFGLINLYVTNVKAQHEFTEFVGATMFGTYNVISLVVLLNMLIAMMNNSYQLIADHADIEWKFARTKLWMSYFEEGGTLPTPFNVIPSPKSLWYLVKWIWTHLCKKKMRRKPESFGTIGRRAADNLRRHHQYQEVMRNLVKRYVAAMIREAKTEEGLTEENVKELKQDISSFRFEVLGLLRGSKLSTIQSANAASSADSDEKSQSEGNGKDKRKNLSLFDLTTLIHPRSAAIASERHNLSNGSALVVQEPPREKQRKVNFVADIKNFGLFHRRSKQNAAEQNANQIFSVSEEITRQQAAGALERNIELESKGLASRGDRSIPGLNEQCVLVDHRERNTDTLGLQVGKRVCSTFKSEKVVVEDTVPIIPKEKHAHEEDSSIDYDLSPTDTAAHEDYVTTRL

Estrogen receptor = biological target: T2, Estrogen receptor (Homo sapiens, UniProt P03372);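 further: potency for inhibiting coactivator peptide recruitment to the receptor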
T2 sequence (P03372 whole entry): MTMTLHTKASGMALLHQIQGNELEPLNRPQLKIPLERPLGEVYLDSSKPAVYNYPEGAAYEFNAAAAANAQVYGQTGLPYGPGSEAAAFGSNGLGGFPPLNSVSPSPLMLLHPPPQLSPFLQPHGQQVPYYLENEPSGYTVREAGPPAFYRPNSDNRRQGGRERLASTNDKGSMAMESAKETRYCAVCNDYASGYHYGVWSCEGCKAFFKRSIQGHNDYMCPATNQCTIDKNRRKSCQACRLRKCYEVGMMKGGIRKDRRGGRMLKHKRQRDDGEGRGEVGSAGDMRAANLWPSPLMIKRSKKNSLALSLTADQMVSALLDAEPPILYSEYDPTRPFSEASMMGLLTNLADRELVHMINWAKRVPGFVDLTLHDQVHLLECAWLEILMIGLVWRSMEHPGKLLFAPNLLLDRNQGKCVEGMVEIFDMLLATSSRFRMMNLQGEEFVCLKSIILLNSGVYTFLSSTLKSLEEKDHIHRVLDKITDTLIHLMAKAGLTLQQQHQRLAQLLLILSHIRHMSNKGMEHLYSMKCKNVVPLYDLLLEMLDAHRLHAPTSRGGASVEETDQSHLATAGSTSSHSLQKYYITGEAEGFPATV

[8] = THP-1 cell cytotoxicity, dose response, cytotoxicity control for Vif-APOBEC3G degradation inhibitor project, THP-1 cells (AID 1117359); format: functional; settings: Human immunodeficiency virus 1, THP-1
[9] = HepG2 cell cytotoxicity, dose response, cytotoxicity control, plate reader, dry powder samples (AID 1159569); format: functional, cell-based;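 further: inhibitor potency with signal falling toward the positive control level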
[10] = inhibitors of HIV Env-driven cell fusion, dose response, cherry-pick (AID 652057); format: functional, cell-based
[11] = ZM109 Env clade C HIV-1 fusion inhibitors, dose response, HeLa effector, CEM target cells, luciferase, cherry-pick (AID 652058); format: functional, cell-based
[12] = P. falciparum Dd2 growth inhibitors, dose response, SYBR Green, dry powder samples (AID 1159566); format: functional, cell-based;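 further: potency for growth inhibition with lower SYBR green DNA signal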
[13] = P. falciparum ATP4 D1247Y mutant growth inhibitors, dose response, NITD609-resistant line, SYBR Green, dry powder (AID 1159571); format: functional, cell-based;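 further: parasites synchronized at ring stage by sorbitol before testing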
[14] = P. falciparum 3D7-ScDHODH growth inhibitors, dose response, SYBR Green, dry powder samples (AID 1159570); format: functional, cell-based;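 further: parasite growth measured after 72 hours of compound exposure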
Paired box protein Pax-8 = Paired box protein Pax-8 (Homo sapiens, UniProt Q06710); test: inhibitors of PAX8-driven TPO luciferase reporter, dose response, RMG-I cells, cherry-pick (AID 687027); format: functional, cell-based;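 further: luciferase reporter driven by Pax8 target thyroperoxidase promoter measured by SteadyGlo luminescence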
Chain of Paired box protein Pax-8 (Q06710 whole entry): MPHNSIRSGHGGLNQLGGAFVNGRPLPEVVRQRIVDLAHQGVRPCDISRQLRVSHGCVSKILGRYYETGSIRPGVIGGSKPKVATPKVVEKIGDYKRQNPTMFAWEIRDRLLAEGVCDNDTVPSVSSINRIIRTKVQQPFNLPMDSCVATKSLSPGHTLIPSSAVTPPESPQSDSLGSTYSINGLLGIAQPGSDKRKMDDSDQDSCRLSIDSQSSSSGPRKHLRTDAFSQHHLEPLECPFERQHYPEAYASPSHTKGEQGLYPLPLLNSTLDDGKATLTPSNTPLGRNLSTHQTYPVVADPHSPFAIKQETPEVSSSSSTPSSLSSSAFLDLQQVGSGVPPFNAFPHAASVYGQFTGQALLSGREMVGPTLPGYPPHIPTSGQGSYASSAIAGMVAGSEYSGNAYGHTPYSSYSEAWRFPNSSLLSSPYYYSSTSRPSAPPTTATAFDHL

[15] = P. falciparum Dd2 growth inhibitors, dose response, SYBR Green, cherry-picked samples (AID 1159567); format: functional, cell-based
[16] = inhibitors of clade B AD8 Env fusion, dose response, cell-based, cherry-pick (AID 652062); format: functional;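 further: luciferase signal from cell-cell fusion driven by HIV-1 clade B AD8 Env; potency is for inhibitors of fusion seen as a drop in luminescence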
cells = format: functional
[17] = THP-1 cell cytotoxicity, dose response, cytotoxicity control for non-replicating M. tuberculosis project (AID 489025); format: functional
[18] = Vero E6 cell cytotoxicity, dose response, cytotoxicity control for non-replicating M. tuberculosis project, secondary assay (AID 492998); format: functional, VeroE6; settings: Vero C1008
[19] = HepG2 cell cytotoxicity, dose response, cytotoxicity control, cherry-picked samples (AID 1159577); format: functional, cell-based
[20] = inhibitors of intracellular T. cruzi replication, confirmation, NIH3T3 host cells, beta-gal luminescence (AID 2044); format: functional, cell-based;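 further: intracellular parasites grown in NIH/3T3 mouse fibroblasts as host cells; luminescent beta-galactosidase reporter signal from transgenic T. cruzi replicating inside host cells; inhibitors lower the luminescence signal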
[21] = cytotoxicity toward NIH3T3 fibroblasts, dose response, counter-screen, cell-based, ATP luminescence, mouse fibroblasts (AID 2010); format: functional;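 further: cells exposed to compound for about 90 hours before reading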

Structure (SMILES): COc1ccc(C)cc1NC(=O)CSc1ccc(-c2sc(C)nc2C)nn1
- IC50 (HEK293 [1]): 10.7 µM (inactive)
- EC50 (HEK293 [2]): 9.47 µM (active)
- IC50 (HEK293 [3]): 14.1 µM (active)
- EC50 [4]: 4.63 µM (active)
- IC50 (HEK293 [5]): > 20 µM (inactive)
- IC50 (HEK293 [6]): > 20 µM (inactive)

Structure (SMILES): c1ccc2[nH]c(CCCCc3nc4ccccc4[nH]3)nc2c1
- EC50 [7]: 2.37 µM (active)

Structure (SMILES): CS(=O)(=O)N(CC(=O)NCc1ccco1)c1ccc2c(c1)OCO2
- IC50 (Estrogen receptor): 40.1 µM (not active)

Structure (SMILES): CC(OC(=O)c1cccc(O)c1)C(=O)N(C)Cc1ccccc1 (stereo unspecified)
- CC50 [8]: > 40 µM (active)

Structure (SMILES): C[C@H](CO)N1C[C@H](C)[C@@H](CN(C)C(=O)Nc2ccc(F)cc2)OCc2ccccc2-c2c(n(C)c3ccccc23)C1=O
- AC50 [9]: 46.8 µM (active)
- AC50 [10]: < 0.26 µM (active)
- AC50 [11]: < 0.26 µM (active)
- AC50 [12]: 0.348 µM (active)
- AC50 [13]: 0.397 µM (active)
- AC50 [14]: 0.662 µM (active)
- AC50 (Paired box protein Pax-8): 24.6 µM (active)
- AC50 [15]: 0.907 µM (active)
- AC50 [16]: < 0.26 µM (active)

Structure (SMILES): CCOC(=O)C1=C(C)C/C(=N\NC(=O)c2ccccc2O)CC1
- IC50 (cells): 10.8 µM (active)
- CC50 [17]: 21.8 µM (active)
- CC50 [18]: 15.3 µM (active)

Structure (SMILES): COc1ccccc1CN1C[C@@H]2N[C@H](C1)[C@@H]2c1ccc(-c2ccc(C#N)cc2)cc1
- AC50 [9]: 7.43 µM (active)
- AC50 [12]: 1.68 µM (active)
- AC50 [19]: 13.7 µM (active)
- AC50 [13]: 2.8 µM (active)
- AC50 [14]: 2.39 µM (active)
- AC50 [15]: 2.36 µM (active)

Structure (SMILES): N#Cc1ccc(-c2ccc([C@H]3[C@@H]4CN(C(=O)C5CCCCC5)C[C@H]3N4)cc2)cc1
- AC50 [9]: 42.9 µM (active)
- AC50 [12]: 3.47 µM (active)
- AC50 [19]: 24.1 µM (active)
- AC50 [13]: 4.16 µM (active)
- AC50 [14]: 3.78 µM (active)
- AC50 [15]: 2.2 µM (active)

Structure (SMILES): Clc1ccc(Nc2nc(-c3ccncc3)cs2)cc1
- IC50 (Estrogen receptor): 18.2 µM (active)
- EC50 [20]: 0.329 µM (active)
- EC50 [21]: 4 µM (active)
